The assay concerns the target T1, human RORγ-LBD (Homo sapiens, UniProt P51449).
T1 construct: made in house; host or cells: E. coli (BL-21)
T1 sequence (P51449 262-518): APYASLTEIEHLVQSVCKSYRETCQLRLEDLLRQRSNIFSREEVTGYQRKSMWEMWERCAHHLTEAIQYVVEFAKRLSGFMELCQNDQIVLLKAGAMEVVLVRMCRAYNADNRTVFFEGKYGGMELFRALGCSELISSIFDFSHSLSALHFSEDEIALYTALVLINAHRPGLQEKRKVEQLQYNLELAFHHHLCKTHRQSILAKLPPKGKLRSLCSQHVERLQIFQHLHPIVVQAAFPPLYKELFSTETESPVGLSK
Description: ROR gamma coactivator peptide recruitment Alphascreen assay (RORγ-LBD binding to GRIP1 coactivator peptide). The format is biochemical. To be noted: 5 nM human RORγ-LBD, 30 nM 7-β-hydroxycholesterol, 50 nM biotinylated GRIP1 coactivator peptide, overnight incubation at room temperature; read-out: result (pIC50, RORγ coactivator peptide recruitment Alphascreen assay) (converted). The procedure, abridged:
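His/Flag-tagged human RORγ-LBD (aa 262-518, E. coli-expressed, 5 nM) with agonist 7-β-hydroxycholesterol (30 nM) and biotinylated GRIP1 LXXLL peptide (50 nM) in HEPES pH 7.4 buffer, 2.5% DMSO. Compound 1-in-2 dilutions; Alphascreen bead signal read after overnight incubation at room temperature; pIC50 calculated.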

On to `C[C@@H]1C[C@H](n2ncc(C(=O)N(CC(=O)c3c(Cl)cncc3Cl)C[C@]34CC[C@H](CC3)O4)c2C(F)(F)F)CC[C@H]1C(=O)O` [Example 867, (1S,2S,4S)-4-(4-((2-(3,5-dichloro-4-pyridinyl)-2-oxoethyl)((1s,4s)-7-oxabicyclo[2.2.1]hept-1-ylmethyl)carbamoyl)-5-(trifluoromethyl)-1H-pyrazol-1-yl)-2-methylcyclohexanecarboxylic acid], for which the IC50 was 24.5 nM.

As for `CC(C)(C)CN(CC(=O)c1c(Cl)cncc1Cl)C(=O)c1cnn([C@H]2CC[C@](C)(C(=O)O)C[C@H]2F)c1C(F)(F)F` [Example 868, (1S,3R,4S)-4-(4-((2-(3,5-dichloro-4-pyridinyl)-2-oxoethyl)(2,2-dimethylpropyl)carbamoyl)-5-(trifluoromethyl)-1H-pyrazol-1-yl)-3-fluoro-1-methylcyclohexanecarboxylic acid], the IC50 was 4.57 nM.

Regarding `CC(C)(C)CN(CC(=O)c1c(Cl)cncc1Cl)C(=O)c1cnn([C@@H]2CC[C@@](C)(C(=O)O)C[C@@H]2F)c1C(F)(F)F` [Example 869, (1R,3S,4R)-4-(4-((2-(3,5-dichloro-4-pyridinyl)-2-oxoethyl)(2,2-dimethylpropyl)carbamoyl)-5-(trifluoromethyl)-1H-pyrazol-1-yl)-3-fluoro-1-methylcyclohexanecarboxylic acid], the IC50 was 13.8 nM.

Regarding `CC(C)(C)CN(CC(=O)c1c(Cl)cncc1Cl)C(=O)c1cnn([C@H]2CC[C@@](C)(C(=O)O)C[C@@H]2F)c1C(F)(F)F` [Example 870, (1R,3S,4S)-4-(4-((2-(3,5-dichloro-4-pyridinyl)-2-oxoethyl)(2,2-dimethylpropyl)carbamoyl)-5-(trifluoromethyl)-1H-pyrazol-1-yl)-3-fluoro-1-methylcyclohexanecarboxylic acid], the IC50 was 575 nM.

For the compound `CC(C)(C)CN(CC(=O)c1c(Cl)cncc1Cl)C(=O)c1cnn([C@@H]2CC[C@]3(C(=O)O)CCC[C@@H]3C2)c1C(F)(F)F` [Example 871], the IC50 was 5.01 nM.

In the case of `COc1ncc(Cl)c(CCN(CC(C)(C)C)C(=O)c2cnn([C@H]3CC[C@](C)(C(=O)O)CC3)c2C(F)(F)F)c1Cl` [Example 872, trans-4-(4-((2-(3,5-dichloro-2-methoxy-4-pyridinyl)ethyl)(2,2-dimethylpropyl)carbamoyl)-5-(trifluoromethyl)-1H-pyrazol-1-yl)-1-methylcyclohexanecarboxylic acid], the IC50 is 97.7 nM.

For `C[C@H]1C[C@@H](n2ncc(C(=O)N(CC(=O)c3c(Cl)cncc3Cl)CC(C)(C)C)c2C(F)(F)F)CC[C@]1(C)C(=O)O` [Example 873, (1S,2S,4S)-4-(4-((2-(3,5-dichloro-4-pyridinyl)-2-oxoethyl)(2,2-dimethylpropyl)carbamoyl)-5-(trifluoromethyl)-1H-pyrazol-1-yl)-1,2-dimethylcyclohexanecarboxylic acid], the IC50 was 5.25 nM.

For the compound `C[C@@H]1C[C@H](n2ncc(C(=O)N(CC(=O)c3c(Cl)cncc3Cl)CC(C)(C)C)c2C(F)(F)F)CC[C@@]1(C)C(=O)O` [Example 874, (1R,2R,4R)-4-(4-((2-(3,5-dichloro-4-pyridinyl)-2-oxoethyl)(2,2-dimethylpropyl)carbamoyl)-5-(trifluoromethyl)-1H-pyrazol-1-yl)-1,2-dimethylcyclohexanecarboxylic acid], the IC50 is 7.76 nM.

On to `C[C@H]1C[C@H](n2ncc(C(=O)N(CC(=O)c3c(Cl)cncc3Cl)CC(C)(C)C(F)(F)F)c2C(F)(F)F)CC[C@H]1C(=O)O` [Example 875, (1R,2S,4R)-4-(4-((2-(3,5-dichloro-4-pyridinyl)-2-oxoethyl)(3,3,3-trifluoro-2,2-dimethylpropyl)carbamoyl)-5-(trifluoromethyl)-1H-pyrazol-1-yl)-2-methylcyclohexanecarboxylic acid], for which the IC50 was 11.7 nM.

Take `CC(C)(C)CN(CC(=O)c1c(Cl)cncc1Cl)C(=O)c1cnn([C@H]2CC[C@@]3(C(=O)O)CCC[C@H]3C2)c1C(F)(F)F` [Example 876, (3aS,6S,7aS )-6-(4-((2-(3,5-dichloropyridin-4-yl)-2-oxoethyl)(neopentyl)carbamoyl)-5-(trifluoromethyl)-1H-pyrazol-1-yl)octahydro-1H-indene-3a-carboxylic acid]: the IC50 is 6.17 nM.

Turning to `CC(C)(C)CN(CC(=O)c1c(Cl)cncc1Cl)C(=O)c1cnn([C@@H]2CC[C@]3(C(=O)O)CCC[C@@H]3C2)c1C(F)(F)F` [Example 877, (3aR,6R,7aR)-6-(4-((2-(3,5-dichloropyridin-4-yl)-2-oxoethyl)(neopentyl)carbamoyl)-5-(trifluoromethyl)-1H-pyrazol-1-yl)octahydro-1H-indene-3a-carboxylic acid], the IC50 was 6.17 nM.

As to `C[C@@H]1C[C@H](n2ncc(C(=O)N(CC(=O)c3c(Cl)cncc3Cl)CC(C)(C)C(F)(F)F)c2C(F)(F)F)CC[C@H]1C(=O)O` [Example 878, (1R,2R,4R)-4-(4-((2-(3,5-dichloro-4-pyridinyl)-2-oxoethyl)(3,3,3-trifluoro-2,2-dimethylpropyl)carbamoyl)-5-(trifluoromethyl)-1H-pyrazol-1-yl)-2-methylcyclohexanecarboxylic acid], the IC50 was 3.89 nM.

As to `C[C@@H]1C[C@H](n2ncc(C(=O)N(CC(=O)c3c(Cl)cncc3Cl)C[C@]34CC[C@H](CC3)O4)c2C(F)(F)F)CC[C@H]1C(=O)O` [Example 880, (1R,2R,4R)-4-(4-((2-(3,5-dichloro-4-pyridinyl)-2-oxoethyl)((1s,4s)-7-oxabicyclo[2.2.1]hept-1-ylmethyl)carbamoyl)-5-(trifluoromethyl)-1H-pyrazol-1-yl)-2-methylcyclohexanecarboxylic acid], the IC50 was 16.2 nM.

As to `C[C@H]1C[C@@H](n2ncc(C(=O)N(CC(=O)c3c(Cl)cncc3Cl)C[C@]34CC[C@H](CC3)O4)c2C(F)(F)F)CC[C@@H]1C(=O)O` [Example 881, (1S,2S,4S)-4-(4-((2-(3,5-dichloro-4-pyridinyl)-2-oxoethyl)((1s,4s)-7-oxabicyclo[2.2.1]hept-1-ylmethyl)carbamoyl)-5-(trifluoromethyl)-1H-pyrazol-1-yl)-2-methylcyclohexanecarboxylic acid], the IC50 is 24.5 nM.

As to `C[C@@H]1C[C@@](C)(C(=O)O)CC[C@@H]1n1ncc(C(=O)N(CC(=O)c2c(Cl)cncc2Cl)CC(C)(C)C)c1C(F)(F)F` [Example 882, (1S,3R,4S)-4-(4-((2-(3,5-dichloro-4-pyridinyl)-2-oxoethyl)(2,2-dimethylpropyl)carbamoyl)-5-(trifluoromethyl)-1H-pyrazol-1-yl)-1,3-dimethylcyclohexanecarboxylic acid], the IC50 is 646 nM.

`C[C@H]1C[C@](C)(C(=O)O)CC[C@H]1n1ncc(C(=O)N(CC(=O)c2c(Cl)cncc2Cl)CC(C)(C)C)c1C(F)(F)F` [Example 883, (1R,3S,4R)-4-(4-((2-(3,5-dichloro-4-pyridinyl)-2-oxoethyl)(2,2-dimethylpropyl)carbamoyl)-5-(trifluoromethyl)-1H-pyrazol-1-yl)-1,3-dimethylcyclohexanecarboxylic acid]: the IC50 is 708 nM.

For the compound `CC(C)(CN(CC(=O)c1c(Cl)cncc1Cl)C(=O)c1cnn([C@H]2CC[C@H](CC(=O)O)CC2)c1C(F)(F)F)C(F)(F)F` [Example 884, (trans-4-(4-((2-(3,5-dichloro-4-pyridinyl)-2-oxoethyl)(3,3,3-trifluoro-2,2-dimethylpropyl)carbamoyl)-5-(trifluoromethyl)-1H-pyrazol-1-yl)cyclohexyl)acetic acid], the IC50 was 1.82 nM.

As for `CC(C)(C)CN(CCc1c(Cl)c[nH]c(=O)c1Cl)C(=O)c1cnn([C@H]2CC[C@](C)(C(=O)O)CC2)c1C(F)(F)F` [Example 885, trans-4-(4-((2-(3,5-dichloro-2-oxo-1,2-dihydro-4-pyridinyl)ethyl)(2,2-dimethylpropyl)carbamoyl)-5-(trifluoromethyl)-1H-pyrazol-1-yl)-1-methylcyclohexanecarboxylic acid], the IC50 is 741 nM.

In the case of `C[C@@H]1C[C@@H](n2ncc(C(=O)N(CCc3c(Cl)c[nH]c(=O)c3Cl)CC(C)(C)C)c2C(F)(F)F)CC[C@@H]1C(=O)O` [Example 886, (1S,2R,4S)-4-(4-((2-(3,5-dichloro-2-oxo-1,2-dihydro-4-pyridinyl)ethyl)(2,2-dimethylpropyl)carbamoyl)-5-(trifluoromethyl)-1H-pyrazol-1-yl)-2-methylcyclohexane carboxylic acid], the IC50 was 468 nM.

Take `COc1ncc(Cl)c(CCN(CC(C)(C)C)C(=O)c2cnn([C@H]3CC[C@H](C(=O)O)[C@H](C)C3)c2C(F)(F)F)c1Cl` [Example 887, (1S,2R,4S)-4-(4-((2-(3,5-dichloro-2-methoxy-4-pyridinyl)ethyl)(2,2-dimethylpropyl)carbamoyl)-5-(trifluoromethyl)-1H-pyrazol-1-yl)-2-methylcyclohexanecarboxylic acid]: the IC50 is 16.2 nM.

With `COc1cc(Cl)c(C(=O)CN(CC2(F)CCCC2)C(=O)c2cnn([C@H]3CC[C@H](CC(=O)O)CC3)c2C(F)(F)F)c(Cl)c1` [Example 888, (trans-4-(4-((2-(2,6-dichloro-4-methoxyphenyl)-2-oxoethyl)((1-fluorocyclopentyl)methyl)carbamoyl)-5-(trifluoromethyl)-1H-pyrazol-1-yl)cyclohexyl)acetic acid], the IC50 is 3.24 nM.

Values taken from patent US9365522B2, “Pyrazole amide derivative” (AMGEN INC., priority 2015, dated 2016).
